Broadly, the IC50 is the concentration that gives 50% inhibition. Low values mean greater potency in that assay, high ones weaker potency in that assay.

The assay relates to blood platelets. The assay can be described thus: Inhibition of platelet aggregation. It is filed as cell-based.
`O=C(O)C[C@@H](CCc1ccccc1)NC(=O)CN(Cc1ccccc1)C(=O)CCCC1CCNCC1` [(1), Pib-N-(benzyl)Gly-3(R)-(2-phenethyl)-β-alanine] returned an IC50 of 0.25 µM.
The figure for `CCCCN(CC(=O)N[C@H](CCc1ccccc1)CC(=O)O)C(=O)CCCC1CCNCC1` [(2), Pib-N-(n-butyl)Gly-3(R)-(2-phenethyl)-β-alanine] is 0.077 µM; for `CC(C)N(C(=O)CCCC1CCNCC1)[C@H](CCc1ccccc1)CC(=O)O` [(3), Pib-N-(i-Propyl)-3(R)-(2-phenethyl)-β-alanine] it is 0.099 µM; for `O=C(O)C[C@@H](CCc1ccccc1)NC(=O)CN(CCc1ccccc1)C(=O)CCCC1CCNCC1` [(4), Pib-N-(2-phenethyl)Gly-3(R)-(2-phenethyl)-β-alanine] it is 0.087 µM.
The same measure for `CCOC(=O)C[C@H](CCc1c[nH]c2ccccc12)NC(=O)CNC(=O)CCCC1CCNCC1` [(5), Pib-Gly-3(S)-[2-(indol-3-yl)ethyl]-β-alanine ethyl ester]: above 1 µM; for `O=C(O)C[C@H](CCc1c[nH]c2ccccc12)NC(=O)CNC(=O)CCCC1CCNCC1` [(6), Pib-Gly-3(S)-[2-(indol-3-yl)ethyl]β-alanine]: 31 µM.
`CC(CCc1ccccc1)(CC(=O)O)NC(=O)CNC(=O)CCCC1CCNCC1` (centres unmarked) [(7)] yielded an IC50 above 300 µM.
The figure for `O=C(O)CC(CCO)NC(=O)CNC(=O)CCCC1CCNCC1` (stereo not drawn) [(8), Pib-Gly-3-[2-(hydroxy)ethyl]β-alanine] is above 1 µM; for `O=C(O)CC(CCCCO)NC(=O)CNC(=O)CCCC1CCNCC1` (stereo not drawn) [(9), Pib-Gly-3-[4-(hydroxy)butyl],β-alanine] it is 3.7 µM.
The figure for `O=C(O)CC(COc1ccccc1)NC(=O)CNC(=O)CCCC1CCNCC1` (stereo not drawn) [(10), Pib-Gly-3-(phenoxymethyl)β-alanine] is 2.1 µM; for `O=C(O)CC(CCc1c[nH]cn1)NC(=O)CNC(=O)CCCC1CCNCC1` (stereo not drawn) [(11), Pib-Gly-3-[2-(imidazol-4-yl)ethyl]β-alanine] it is 2.7 µM; for `O=C(O)CC(CCc1cncn1Cc1ccccc1)NC(=O)CNC(=O)CCCC1CCNCC1` (stereo not drawn) [(12), Pib-Gly-3-[2-(3-benzylimidazol-4-yl)ethyl]β-alanine] it is 1.5 µM.
The same measure for `Cc1[nH]c2ccccc2c1CCC(CC(=O)O)NC(=O)CNC(=O)CCCC1CCNCC1` (stereo not drawn) [(14), Pib-Gly-3-[2-(2-methylindol-3-yl)ethyl]β-alanine]: 1.1 µM.
Take “Pib-Gly-3-(3-carboxypropyl)β-alanine [(13)]”: the IC50 stood at 4 µM.

Values taken from patent US5264420A, “Fibrinogen receptor antagonists” (Merck & Co., Inc., priority 1992, dated 1993).
